Experimental data published in publication PMC7640924 (Bioorganic & Medicinal Chemistry Letters, 2020).

Columns and labels:
SARS-CoV-2 = test: Anti-SARS-CoV-2 activity, cellular phenotypic screening; format: cell-based; conditions: Vero cells
hERG = hERG (Homo sapiens, UniProt Q12809); test: hERG inhibition; format: binding
Microsomal stability = format: in vitro ADME; conditions: human

Chain of hERG (Q12809 whole entry): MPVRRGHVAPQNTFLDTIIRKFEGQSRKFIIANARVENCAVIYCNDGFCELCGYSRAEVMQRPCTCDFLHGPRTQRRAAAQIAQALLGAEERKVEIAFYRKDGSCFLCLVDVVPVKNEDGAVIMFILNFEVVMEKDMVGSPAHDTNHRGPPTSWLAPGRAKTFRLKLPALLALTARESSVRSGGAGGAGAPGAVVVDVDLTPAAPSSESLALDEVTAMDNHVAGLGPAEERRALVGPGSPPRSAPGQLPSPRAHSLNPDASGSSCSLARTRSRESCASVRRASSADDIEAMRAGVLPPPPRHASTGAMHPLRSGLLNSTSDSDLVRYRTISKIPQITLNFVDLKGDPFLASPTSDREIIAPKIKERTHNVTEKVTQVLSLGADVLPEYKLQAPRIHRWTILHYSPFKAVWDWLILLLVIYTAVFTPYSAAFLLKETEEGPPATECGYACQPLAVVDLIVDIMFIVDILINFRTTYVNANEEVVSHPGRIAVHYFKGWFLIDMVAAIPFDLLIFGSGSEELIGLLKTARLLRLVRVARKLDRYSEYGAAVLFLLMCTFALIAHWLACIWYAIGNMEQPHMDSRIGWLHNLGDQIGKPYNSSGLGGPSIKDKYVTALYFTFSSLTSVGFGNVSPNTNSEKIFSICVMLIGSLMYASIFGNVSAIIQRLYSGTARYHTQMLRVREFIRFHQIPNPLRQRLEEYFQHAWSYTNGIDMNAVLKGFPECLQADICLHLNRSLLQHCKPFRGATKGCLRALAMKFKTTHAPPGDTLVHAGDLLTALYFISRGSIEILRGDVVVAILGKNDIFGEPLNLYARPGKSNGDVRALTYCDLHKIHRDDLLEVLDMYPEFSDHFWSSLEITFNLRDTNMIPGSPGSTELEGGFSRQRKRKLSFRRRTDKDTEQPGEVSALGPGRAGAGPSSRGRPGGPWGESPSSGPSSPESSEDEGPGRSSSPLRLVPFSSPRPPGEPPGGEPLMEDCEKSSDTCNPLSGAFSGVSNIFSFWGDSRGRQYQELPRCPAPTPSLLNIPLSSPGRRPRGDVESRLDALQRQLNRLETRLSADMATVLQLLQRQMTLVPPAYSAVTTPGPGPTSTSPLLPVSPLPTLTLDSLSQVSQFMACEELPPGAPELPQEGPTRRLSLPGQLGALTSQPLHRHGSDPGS

SMILES	anti-SARS-CoV-2 activity (in words) (SARS-CoV-2)	hERG binding (in words) (hERG)	microsomal stability (in words) (Microsomal stability)
O=C(CN1C(C(=O)c2ccc(F)cc2)=C(O)c2ccccc2S1(=O)=O)Nc1ccccc1 [Compound 4a, 2-(3-(4-fluorobenzoyl)-4-hydroxy-1,1-dioxido-2H-benzo[e][1,2]thiazin-2-yl)-N-phenylacetamide]	no inhibitory effect		
O=C(CN1C(C(=O)c2ccc(F)cc2)=C(O)c2ccccc2S1(=O)=O)Nc1ccccc1Cl [Compound 4b, N-(2-Chlorophenyl)-2-(3-(4-fluorobenzoyl)-4-hydroxy-1,1-dioxido-2H-benzo[e][1,2]thiazin-2-yl)acetamide]	no inhibitory effect		
CCNC(=O)CN1C(C(=O)c2ccccc2)=C(O)c2ccccc2S1(=O)=O [Compound 4f, 2-(3-Benzoyl-4-hydroxy-1,1-dioxido-2H-benzo[e][1,2]thiazin-2-yl)-N-ethylacetamide]	detrimental for anti-SARS-CoV-2 activities		
O=C(C1=C(O)c2ccccc2S(=O)(=O)N1Cc1ccccc1)c1ccccc1 [Compound 5a, (2-Benzyl-4-hydroxy-1,1-dioxido-2H-benzo[e][1,2]thiazin-3-yl)(phenyl)methanone]	no anti-SARS-CoV-2 activities		
N#Cc1cccc(C(=O)C2=C(O)c3ccccc3S(=O)(=O)N2CC(=O)c2ccc(F)c(Cl)c2)c1 [Compound 5b, 3-(2-(2-(3-Chloro-4-fluorophenyl)-2-oxoethyl)-4-hydroxy-1,1-dioxido-2H-benzo[e][1,2]thiazine-3-carbonyl)benzonitrile]	no anti-SARS-CoV-2 activities		
N#Cc1ccc(C(=O)C2=C(O)c3ccccc3S(=O)(=O)N2CC(=O)c2ccc(F)c(Cl)c2)cc1 [Compound 5c, 4-(2-(2-(3-Chloro-4-fluorophenyl)-2-oxoethyl)-4-hydroxy-1,1-dioxido-2H-benzo[e][1,2]thiazine-3-carbonyl)benzonitrile]	no anti-SARS-CoV-2 activities		
O=C(O)/C=C/N1C(C(=O)c2ccc(F)c(Cl)c2)=C(O)c2ccccc2S1(=O)=O [Compound 7, (E)-3-(3-(3-Chloro-4-fluorobenzoyl)-4-hydroxy-1,1-dioxido-2H-benzo[e][1,2]thiazin-2-yl)acrylic acid]	no antiviral effect		
O=C(CN1C(C(=O)c2ccc(F)c(Cl)c2)=C(O)c2ccc(F)cc2S1(=O)=O)Nc1ccc(C(F)(F)F)cc1 [Compound 13c, 2-(3-(3-Chloro-4-fluorobenzoyl)-7-fluoro-4-hydroxy-1,1-dioxido-2H-benzo[e][1,2]thiazin-2-yl)-N-(4-(trifluoromethyl)phenyl)acetamide]		low binding with hERG	good microsomal stability
